Measurements published in US20140093573A1, “NON-ENTERIC COATED PHARMACEUTICAL COMPOSITION AND USE THEREOF” (NATIONAL TAIWAN UNIVERSITY, priority 2012, published 2014).

Tested on: Caco-2 cells
Experiment: Cellular uptake study (flow cytometry, confocal microscopy)
Type: cell-based, Human
Settings: Caco-2 monolayer, 0.5 h incubation, 200 ng/mL coumarin-6 equivalent
Experimental: Caco-2 cell monolayers approximately 21-24 days post seeding were used for the cellular uptake study. Before the experiments, the monolayers were washed with HBSS (pH 7.4) twice and then preincubated with HBSS at 37° C. for 30 min. The HBSS (control), free coumarin-6 solution (200 ng/mL), ERSNPs-C6 or PLGANPs-C6 suspension in HBSS equivalent to 200 ng/mL of coumarin-6 were added in the donor compartment while 3 mL of HBSS was added in the receiver compartment. These Caco-2 cell monolayers were incubated for 0.5 h and 1 h at 37° C. in an atmosphere of 5% CO2 and 90% relative humidity. The flow cytometry and confocal microscopy were used to assess the intracellular fluorescence. After 0.5 h and 1 h of incubation, the cell monolayers were washed with phosphate buffered saline (PBS, pH 7.4) three times following by trypsinization for 5 min (100 μL, 0.25% trypsin EDTA). Trypsinization was stopped by adding 1 mL of cold PBS. Cells were detached from the inserts by pipetting and centrifuged at 1000 rpm for 5 min The cells were resuspended in 2 mL PBS and analyzed by using fluorescent activated flow cytometry (BD FACS Calibur) and BD CellQuest software (BD Biosciences, NJ, USA). This experiment was performed in triplicate.
For confocal microscopic study, after 0.5 hours of incubation at 37° C., cell monolayer was washed with PBS three times. […]

CCN(CC)c1ccc2cc(-c3nc4ccccc4s3)c(=O)oc2c1 [coumarin-6, Coumarin-6]
cellular uptake efficiency (fluorescence intensity of cells): 1.27±0.3%
